# Laboratory results taken from US20050148495A1, “Methods and materials including for treating acne” (priority 2003, published 2005).
# Read-outs that look alike come from different tables or passages of the source. Non-standard residues stand in square brackets, D forms with d. Residues, ends and D or L forms follow the SMILES beside them. d1Nal = N[C@H](Cc1cccc2ccccc12)C(=O)O
# How the values were obtained:
# protease = assay: Resistance to protease degradation
# Description: In additional studies, a variety of formulations of XMP.629 were tested for stability under various temperatures, such as 25° C., 40° C., and 50° C., and at various time points, such as 0.5, 1, and 2 months.
# E. coli 07:K1 = assay: Acute peritonitis model (survival); type: in vivo, mice; settings: 10 mg/kg intraperitoneally; 1.4×10^7 CFU E. coli 07:K1; seven days
# Description: In additional studies in an acute peritonitis model, mice were challenged intraperitoneally with 1.4×10^7 CFU E. coli 07:K1 and treated intraperitoneally with XMP.629 at 1, 3, or 10 mg/kg or saline. Mice were observed twice daily and mortality was recorded for seven days. Statistical comparisons between the treatment groups and saline were performed using a Chi Square test. […] At 10 mg/kg, 87% protection was observed. In additional studies, XMP.629 was safely administered at a dose of 20 mg/kg intravenously.
# CHO cells = assay: CHO chromosomal aberration test; type: cell-based, Chinese Hamster; settings: with and without metabolic activation
# Description: XMP.629 was next evaluated for activity to induce chromosomal aberrations in cultured CHO cells with and without an exogenous metabolic activation system. […] The assay design for these chromosomal aberration studies was based on OECD Guideline 473, updated and adopted Jul. 21, 1997. XMP.629 was provided as a 20.0 mg/mL stock in 10 mM sodium acetate buffer (pH 6). This solution and its dilutions prepared in cell culture grade water were dosed at 10% vol/vol (100 pUL/mL). The vehicle control cultures were treated with 100 μL/mL of cell culture grade water. In the initial assay, the treatment period was for 3.0 hours with and without metabolic activation at various concentrations of XMP.629 (30, 60, 120, 240, 480, 686, 980, 1400 and 2000 μg/mL) and cultures were harvested 20.0 hours from the initiation of treatment. Those cultures that were treated with 30, 60 and 120 pg/mL were analyzed for chromosomal aberrations. No significant increase in cells with chromosomal aberrations, polyploidy or endoreduplication was observed. In a confirmatory assay that included lower doses, the treatment period was 20 hours without metabolic activation (3.75, 7.5,15, 30, 60, 90, 120, 160, 200 and 240 μg/mL) and 3 hours with metabolic activation (15, 30, 60, 90, 120, 160, 200, 240, 300 and 360 μg/mL). […]
# P. granulosum = type: cell-based, Propionibacterium granulosum
# Description: This example addresses studies relating to the antimicrobial activities of XMP.629. An in vitro assessment of antibiotic activity in XMP.629 and various known antibiotics against a representative panel of bacterial strains associated with acne was conducted. A broth dilution methodology was employed using guidelines established by National Committee for Clinical Laboratory Standards (NCCLS) for anaerobic organisms to establish an antibacterial profile for XMP.629. Assays to determine the minimal bactericidal concentrations (MBC) and minimal inhibitory concentration (MIC) were conducted for XMP.629 and other known antibiotics. Furthermore, test to determine post antibiotic effect (PAE) of XMP.629 were done.
# Inoculum from a representative panel of bacterial strains associated with acne, such as P. acnes, P. avidum, P. granulosum, and Staphylococcus epidermis was prepared by suspending approximately 5-10 isolated bacterial colonies in pre-reduced MicroScan® Inoculum Water (Dade Behring, Deerfield, Ill.), and growing the bacterial suspension to log phase (approximately 48 hrs). An inoculum of between 1-5×10^6/mL was achieved by adding 100 μL of the suspension to 25 mL Brain Heart Infusion Broth (BHI) (Anaerobe Systems, Morgan Hill, Calif.).
# A stock solution of XMP.629 dissolved in water at a concentration of 4.0 mg/mL was prepared. Dilute solutions of XMP.629 at concentrations ranging from about 1.25 to about 160 μg/mL were made in either water or formulation buffer (130 mM sodium chloride, 0.2% P103 (poloxamer 333), and 0.10% EDTA, pH 7.3). Aqueous stock solutions of clindamycin and erythromycin were prepared in water.
# Each tube, containing a final volume of 1 mL, was mixed by vortexing. Control tubes containing only water or formulation buffer were prepared for each isolate. Initial growth controls were determined by removing 10 μL from the water control tube and diluting it by 100 fold. From this dilution, 10 μL was used for inoculation and for spreading over the surface onto Laked Blood Agar (LBA) (Anaerobe Systems, Morgan Hill, Calif.) plates. The tubes and plates were incubated in an anaerobic atmosphere at 37° C. for 48 h. After incubation, the tubes were mixed and 10 μL samples were removed from each tube for additional plating. These plates were then further incubated in an anaerobic atmosphere at 37° C. for 48-72 h and the resulting colonies were counted. After adjusting for the dilution factor, the lowest concentration of drug or combination of drugs reducing the inoculum by ≧99.9% was considered to be the minimum bactericidal concentration (MBC). MBC50 and 90 values represent where 50 and 90%, respectively, of the tested strain's MBC values are equal to or less than the indicated concentration. The lowest concentration of antibiotic(s) that inhibited visible growth in the culture tubes was considered to be the minimal inhibitory concentration (MIC).
# For comparison, additional Propionibacterium strains, were tested.
# E. coli = settings: for MBC: agent alone
# [1] = RMA 5740, Formulation Buffer Solvent, Study 1
# [2] = RMA 5740, Formulation Buffer Solvent, Study 2
# [3] = RMA 5740, Water Solvent, Study 1
# [4] = RMA 5740, Water Solvent, Study 2
# [5] = RMA 6867, Formulation Buffer Solvent, Study 1
# [6] = RMA 6867, Formulation Buffer Solvent, Study 2
# [7] = RMA 6867, Water Solvent, Study 1
# [8] = RMA 6867, Water Solvent, Study 2
# [9] = RMA 7093, Formulation Buffer Solvent, Study 1
# [10] = RMA 7093, Formulation Buffer Solvent, Study 2
# [11] = RMA 7093, Water Solvent, Study 1
# [12] = RMA 7093, Water Solvent, Study 2
# [13] = RMA 11787, Formulation Buffer Solvent, Study 1
# [14] = RMA 11787, Formulation Buffer Solvent, Study 2
# [15] = RMA 11787, Water Solvent, Study 1
# [16] = RMA 11787, Water Solvent, Study 2
compound,measurement,setting,value
"CC(C)C[C@@H](NC(=O)[C@H](N)CCCCN)C(=O)N[C@H](Cc1ccccc1)C(=O)N[C@H](CCCNC(=N)N)C(=O)N[C@H](Cc1cccc2ccccc12)C(=O)N[C@H](CCC(N)=O)C(=O)N[C@H](C)C(=O)N[C@H](CCCCN)C(=O)N[C@H](Cc1cccc2ccccc12)C(N)=O [XMP.629, NH2-lys-leu-phe-arg-(3-(1-naphthyl)-ala)-gln-ala-lys-(3-(1-naphthyl)-ala)-CONH2] (H-[dK][dL][dF][dR][d1Nal][dQ][dA][dK][d1Nal]-NH2)",protease degradation,protease,substantially resistant to protease degradation
same,protection (survival),E. coli 07:K1,87%
same,chromosomal aberrations in CHO cells,CHO cells,negative
same,MBC50,"P. granulosum; P. granulosum, 4 strains",0.25 µg/mL
same,MBC90,"P. granulosum; P. granulosum, 4 strains",4 µg/mL
same,MBC Range,"P. granulosum; P. granulosum, 4 strains, in µg/mL",0.25-4
same,MBC,P. granulosum; [1],2 µg/mL
same,MIC,P. granulosum; [1],1 µg/mL
same,MBC,P. granulosum; [2],0.25 µg/mL
same,MIC,P. granulosum; [2],0.25 µg/mL
same,MBC,P. granulosum; [3],4 µg/mL
same,MIC,P. granulosum; [3],2 µg/mL
same,MBC,P. granulosum; [4],1 µg/mL
same,MIC,P. granulosum; [4],1 µg/mL
same,MBC,P. granulosum; [5],2 µg/mL
same,MIC,P. granulosum; [5],0.5 µg/mL
same,MBC,P. granulosum; [6],4 µg/mL
same,MIC,P. granulosum; [6],4 µg/mL
same,MBC,P. granulosum; [7],2 µg/mL
same,MIC,P. granulosum; [7],1 µg/mL
same,MBC,P. granulosum; [8],4 µg/mL
same,MIC,P. granulosum; [8],4 µg/mL
same,MBC,P. granulosum; [9],2 µg/mL
same,MIC,P. granulosum; [9],1 µg/mL
same,MBC,P. granulosum; [10],0.25 µg/mL
same,MIC,P. granulosum; [10],0.25 µg/mL
same,MBC,P. granulosum; [11],2 µg/mL
same,MIC,P. granulosum; [11],2 µg/mL
same,MBC,P. granulosum; [12],0.5 µg/mL
same,MIC,P. granulosum; [12],1 µg/mL
same,MBC,P. granulosum; [13],2 µg/mL
same,MIC,P. granulosum; [13],2 µg/mL
same,MBC,P. granulosum; [14],0.25 µg/mL
same,MIC,P. granulosum; [14],0.25 µg/mL
same,MBC,P. granulosum; [15],2 µg/mL
same,MIC,P. granulosum; [15],2 µg/mL
same,MBC,P. granulosum; [16],1 µg/mL
same,MIC,P. granulosum; [16],1 µg/mL
same,MBC,E. coli; E. coli 706U2-1081,16 µg/mL
same,XMP.629 MBC,"E. coli; E. coli 4104 LF, XMP.629 alone",16 µg/mL
same,MBC,E. coli; E. coli 4104 LF,8 µg/mL
